Measurements taken from ChEMBL document CHEMBL3352258 (J Med Chem, 2014).
≈ marks a conversion by molar mass, not a printed value.

Tests used:
[1] = biological target: T1, Glucose-dependent insulinotropic receptor (Homo sapiens, UniProt Q8TDV5); assay: Agonist activity at human GPR119
T1 sequence (Q8TDV5 whole entry): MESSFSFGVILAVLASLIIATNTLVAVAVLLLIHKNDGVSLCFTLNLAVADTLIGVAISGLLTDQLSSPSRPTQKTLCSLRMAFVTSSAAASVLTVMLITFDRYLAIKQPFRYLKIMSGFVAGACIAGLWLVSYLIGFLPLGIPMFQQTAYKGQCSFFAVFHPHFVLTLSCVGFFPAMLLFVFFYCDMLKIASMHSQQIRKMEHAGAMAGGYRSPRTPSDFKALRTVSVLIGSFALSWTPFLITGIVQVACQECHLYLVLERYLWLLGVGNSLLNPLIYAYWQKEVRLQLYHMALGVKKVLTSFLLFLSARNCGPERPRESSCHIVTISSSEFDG

[2] = biological target: T2, Glucose-dependent insulinotropic receptor (Homo sapiens) (UniProt Q8TDV5); assay: Intrinsic activity at human GPR119 relative to control
T2 sequence (whole entry): T1 sequence (Q8TDV5 whole entry)

[3] = Half life in Sprague-Dawley rat at 5 mg/kg, po; format: ADME, organism-based; set-up: dose 5 mg/kg, route oral; conditions: Sprague-Dawley, in vivo
[4] = Half life in human liver microsomes; format: ADME
[5] = Solubility of the compound at pH 6.5; format: physicochemical; conditions: buffer
[6] = Half life in mouse; format: ADME, organism-based; conditions: in vivo
[7] = Solubility of the compound in 50% PEG400/ 50% PBS solution; format: physicochemical

| Structure (SMILES) | EC50 [1] | Intrinsic activity [2] | further results |
| --- | --- | --- | --- |
| CCCc1cnc(N2CCC(Oc3ccn(-c4ccc(-n5ccnc5)cc4)c(=O)c3)CC2)nc1 | – | 0.8 | – |
| CCCc1cnc(N2CCC(Oc3cc(=O)n(-c4ccc(S(C)(=O)=O)cc4)cc3Cl)CC2)nc1 | – | 0.8 | – |
| CC(C)OC(=O)N1[C@@H]2CC[C@@H]1CC(Oc1ccn(-c3ccc(S(C)(=O)=O)cc3)c(=O)c1)C2 (relative stereo; 13) [listing 1 of 2 here] | 870 nM | – | – |
| CS(=O)(=O)c1ccc(-n2cc(Cl)c(OC3CCN(c4ncc(Cl)cn4)CC3)cc2=O)cc1F | 13 nM | – | half-life [3]: 12 min; half-life [4]: 39 min; solubility [5]: 3 µg/mL (≈ 5.84 µM); half-life [6]: 18 min; solubility [7]: 199 µg/mL (≈ 388 µM) |
| CCCc1cnc(N2CCC(Oc3ccn(-c4ccc(N5CCCC5=O)cc4)c(=O)c3)CC2)nc1 | 32 nM | 0.8 | – |
| CS(=O)(=O)c1ccc(-n2cc(Cl)c(OC3CCN(c4ncc(C(F)(F)F)cn4)CC3)cc2=O)cc1F | 16 nM | – | half-life [3]: > 48 min; half-life [4]: > 120 min; solubility [5]: < 1 µg/mL; half-life [6]: 27 min; solubility [7]: 31 µg/mL (≈ 56.7 µM) |
| CC(C)OC(=O)N1[C@@H]2CC[C@@H]1CC(Oc1ccn(-c3ccc(S(C)(=O)=O)cc3)c(=O)c1)C2 (relative stereo; 13) [listing 2 of 2 here] | – | 1 | – |
| CS(=O)(=O)c1ccc(-n2cc(Cl)c(OC3CCN(c4ncc(C(F)(F)F)cn4)CC3)cc2=O)c(F)c1 | 12 nM | – | half-life [3]: > 72 min; half-life [4]: > 120 min; solubility [5]: 1 µg/mL (≈ 1.83 µM); half-life [6]: 30 min; solubility [7]: 122 µg/mL (≈ 223 µM) |
| CCc1ccc(N2CCC(Oc3ccn(-c4ccc(S(C)(=O)=O)cc4)c(=O)c3)CC2)nc1 | 104 nM | 0.6 | – |
| CS(=O)(=O)c1ccc(-n2ccc(OC3CCN(c4ncc(C5CC5)cn4)CC3)cc2=O)cc1 | 23 nM | 0.9 | – |
| CCCc1cnc(N2CCC(Oc3cc(=O)n(-c4ccc(S(C)(=O)=O)cc4)cc3C)CC2)nc1 | 31 nM | 0.9 | – |
| CCc1cnc(N2CCC(Oc3ccn(-c4ccc(S(C)(=O)=O)cc4)c(=O)c3)CC2)nc1 | 57 nM | 0.8 | – |
| CCCc1cnc(N2CCC(Oc3cc(=O)n(-c4ccc(S(C)(=O)=O)cc4)cc3C#N)CC2)nc1 | 12 nM | 0.8 | – |
| CC(C)OC(=O)N1[C@@H]2CC[C@@H]1CC(Oc1ccn(-c3ccc(S(C)(=O)=O)cc3)c(=O)c1)C2 (relative stereo; 14) | – | 0.7 | – |
| CCCc1cnc(N2CCC(Oc3ccn(-c4ccc(S(C)(=O)=O)cc4)c(=O)c3Cl)CC2)nc1 | > 10000 nM | – | – |

Continued, in another order:

| EC50 [1] | Intrinsic activity [2] | Structure (SMILES) | further results |
| --- | --- | --- | --- |
| 41 nM | 0.9 | CCCc1cnc(N2CCC(Oc3ccn(-c4ccc([S+](C)[O-])cc4)c(=O)c3)CC2)nc1 (racemic) | – |
| 130 nM | 0.9 | CS(=O)(=O)c1ccc(-n2ccc(OC3CCN(C(=O)Oc4ccccc4)CC3)cc2=O)cc1 | – |
| 183 nM | 0.8 | CC(C)(C)OC(=O)N1CCC(Oc2ccn(-c3ccc(S(C)(=O)=O)cc3)c(=O)c2)CC1 | – |
| > 10000 nM | – | CC(C)OC(=O)N1CC(Oc2ccn(-c3ccc(S(C)(=O)=O)cc3)c(=O)c2)C1 | – |
| > 10000 nM | – | CCCc1cnc(N2CCC(Oc3cc(C)n(-c4ccc(S(C)(=O)=O)cc4)c(=O)c3)CC2)nc1 | – |
| > 10000 nM | – | CCCc1cnc(N2CCC(Oc3cc(=O)n(-c4ccc(S(C)(=O)=O)cc4)cc3-c3ccccc3)CC2)nc1 | – |
| 11 nM | 0.8 | CCCc1cnc(N2CCC(Oc3ccn(-c4ccc(C#N)cc4)c(=O)c3)CC2)nc1 | – |
| 1700 nM | 0.7 | CC(C)OC(=O)N1CCC(COc2ccn(-c3ccc(S(C)(=O)=O)cc3)c(=O)c2)CC1 | – |
| 724 nM | 0.3 | Cc1ccnc(N2CCC(Oc3ccn(-c4ccc(S(C)(=O)=O)cc4)c(=O)c3)CC2)n1 | – |
| 37 nM | 0.8 | CCCc1cnc(N2CCC(Oc3ccn(-c4ccc(NC(=O)C(C)(C)C)cc4)c(=O)c3)CC2)nc1 | – |
| 63 nM | 0.8 | CCCc1cnc(N2CCC(Oc3ccn(-c4ccc(-n5cncn5)cc4)c(=O)c3)CC2)nc1 | – |
| 16 nM | 0.8 | CCCc1cnc(N2CCC(Oc3ccn(-c4ccc(S(C)(=O)=O)cc4)c(=O)c3)CC2)nc1 | – |
| 9 nM | 0.8 | CCCc1cnc(N2CCC(Oc3ccn(-c4ccc(S(C)(=O)=O)c(F)c4)c(=O)c3)CC2)nc1 | – |
| > 10000 nM | – | CC(C)OC(=O)N1CCC(COc2ccn(-c3ccc(S(C)(=O)=O)cc3)c(=O)c2)C1 (stereo not given) | – |
| 13 nM | – | CS(=O)(=O)c1ccc(-n2cc(Cl)c(OC3CCN(c4ncc(C(F)(F)F)cn4)CC3)cc2=O)cc1 | half-life [3]: > 72 min; half-life [4]: > 120 min; solubility [5]: < 1 µg/mL; half-life [6]: 16 min; solubility [7]: 3 µg/mL (≈ 5.67 µM) |
| > 10000 nM | – | CC(C)OC(=O)N1CC(COc2ccn(-c3ccc(S(C)(=O)=O)cc3)c(=O)c2)C1 | – |
| > 10000 nM | – | CC(C)OC(=O)N1CCC(Oc2ccn(-c3ccc(S(C)(=O)=O)cc3)c(=O)c2)C1 (stereo not given) | – |
| 18 nM | – | CS(=O)(=O)c1ccc(-n2cc(Cl)c(OC3CCN(c4ncc(Cl)cn4)CC3)cc2=O)cc1 | half-life [3]: 9 min; half-life [4]: 59 min; solubility [5]: < 1 µg/mL; half-life [6]: 11 min; solubility [7]: 7 µg/mL (≈ 14.1 µM) |
| 1090 nM | 0.7 | CC(C)OC(=O)N1CCCC(Oc2ccn(-c3ccc(S(C)(=O)=O)cc3)c(=O)c2)CC1 (stereo not given) | – |
| 133 nM | 0.8 | CC(C)OC(=O)N1CCC(Oc2ccn(-c3ccc(S(C)(=O)=O)cc3)c(=O)c2)CC1 | – |
| 117 nM | 1 | COc1cnc(N2CCC(Oc3ccn(-c4ccc(S(C)(=O)=O)cc4)c(=O)c3)CC2)nc1 | – |
